Toxic doses and inconclusive results are not listed. Cut-off read from the data, not from the text of the source: active = T/C of 150% or more; inactive = T/C below 125%.
Test system: L1210 leukemia ip in BDF1 mice, survival T/C
Assay: NCI In Vivo Anticancer Drug Screen. Data for tumor model L1210 Leukemia (intraperitoneal) in B6D2F1 (BDF1) mice
Conditions: endpoint: mean survival time, higher = longer survival
In short: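 Ratio derived from survival: compound-dosed mice over vehicle-dosed mice, all bearing a transplantable tumor.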

[1] = dose: 100.0 mg/kg/injection, schedule: Q01DX009 (ip), vehicle: Klucel (hydroxypropylcellulose) (HPC)
[2] = dose: 200.0 mg/kg/injection, schedule: Q01DX009 (ip), vehicle: Klucel (hydroxypropylcellulose) (HPC)
[3] = dose: 400.0 mg/kg/injection, schedule: Q01DX009 (ip), vehicle: Klucel (hydroxypropylcellulose) (HPC)
[4] = dose: 100.0 mg/kg/injection, schedule: Q04DX003 (ip), vehicle: Klucel (hydroxypropylcellulose) (HPC)
[5] = dose: 200.0 mg/kg/injection, schedule: Q04DX003 (ip), vehicle: Klucel (hydroxypropylcellulose) (HPC)
[6] = dose: 400.0 mg/kg/injection, schedule: Q04DX003 (ip), vehicle: Klucel (hydroxypropylcellulose) (HPC)
[7] = dose: 100.0 mg/kg/injection, schedule: Q01DX009 (ip), vehicle: saline with Tween-80
[8] = dose: 100.0 mg/kg/injection, schedule: Q04DX003 (ip), vehicle: saline with Tween-80
[9] = dose: 200.0 mg/kg/injection, schedule: Q01DX009 (ip), vehicle: saline with Tween-80
[10] = dose: 200.0 mg/kg/injection, schedule: Q04DX003 (ip), vehicle: saline with Tween-80
[11] = dose: 400.0 mg/kg/injection, schedule: Q01DX009 (ip), vehicle: saline with Tween-80
[12] = dose: 100.0 mg/kg/injection, schedule: Q01DX001 (ip), vehicle: carboxymethylcellulose (CMC)
[13] = dose: 200.0 mg/kg/injection, schedule: Q01DX001 (ip), vehicle: carboxymethylcellulose (CMC)
[14] = dose: 400.0 mg/kg/injection, schedule: Q01DX001 (ip), vehicle: carboxymethylcellulose (CMC)
[15] = dose: 50.0 mg/kg/injection, schedule: Q01DX009 (ip), vehicle: saline with Tween-80
[16] = dose: 100.0 mg/kg/injection, schedule: Q04DX003 (ip), vehicle: saline
[17] = dose: 200.0 mg/kg/injection, schedule: Q04DX003 (ip), vehicle: saline
[18] = dose: 400.0 mg/kg/injection, schedule: Q04DX003 (ip), vehicle: saline

Measured: T/C

O=C(O)CCSCCSCCC(=O)O
inactive: [1] 95 % of control | [2] 90 % of control | [3] 100 % of control

COc1c(NC(=O)Nc2ccccc2Cl)cccc1[N+](=O)[O-]
inactive: dose: 400.0 mg/kg/injection, schedule: Q04DX002 (ip), vehicle: saline with Tween-80 90 % of control

CCCCCCCCCCCCCCCCN(C(=S)NC(=O)c1ccccc1)c1ccccc1
inactive: dose: 100.0 mg/kg/injection, schedule: Q01DX001 (ip), vehicle: Klucel (hydroxypropylcellulose) (HPC) 96 % of control | [4] 97 % of control | dose: 200.0 mg/kg/injection, schedule: Q01DX001 (ip), vehicle: Klucel (hydroxypropylcellulose) (HPC) 86 % of control | [5] 89 % of control | dose: 400.0 mg/kg/injection, schedule: Q01DX001 (ip), vehicle: Klucel (hydroxypropylcellulose) (HPC) 92 % of control | [6] 95 % of control

CC(C(O)c1ccccc1)N(C)/N=N/c1nc[nH]c1C(N)=O (stereo not drawn)
inactive: dose: 100.0 mg/kg/injection, schedule: Q01DX001 (ip), vehicle: saline with Tween-80 92 % of control | [7] 98 % of control | [8] 98 % of control | dose: 200.0 mg/kg/injection, schedule: Q01DX001 (ip), vehicle: saline with Tween-80 90 % of control | [9] 103 % of control | [10] 102 % of control | dose: 400.0 mg/kg/injection, schedule: Q01DX001 (ip), vehicle: saline with Tween-80 92 % of control | [11] 107 % of control | dose: 400.0 mg/kg/injection, schedule: Q04DX003 (ip), vehicle: saline with Tween-80 102 % of control

CCOC(=O)c1[nH]cnc1/N=N/N(C)C1CCCCC1
inactive: dose: 85.0 mg/kg/injection, schedule: Q01DX015 (ip), vehicle: carboxymethylcellulose (CMC) 103 % of control | [12] 98 % of control | dose: 114.0 mg/kg/injection, schedule: Q01DX015 (ip), vehicle: carboxymethylcellulose (CMC) 107 % of control | [13] 109 % of control | [14] 102 % of control

Cc1ccccc1Nc1ncnc2c1cnn2-c1ccccc1
inactive: dose: 100.0 mg/kg/injection, schedule: Q01DX001 (ip), vehicle: saline 102 % of control | dose: 200.0 mg/kg/injection, schedule: Q01DX001 (ip), vehicle: saline 105 % of control | dose: 400.0 mg/kg/injection, schedule: Q01DX001 (ip), vehicle: saline 115 % of control

CCC(CO)C(C)C (stereo not drawn)
inactive: [15] 107 % of control | [7] 102 % of control | [9] 93 % of control

O=C(Nc1ccc(OCc2ccccc2)cc1)c1ccc([N+](=O)[O-])s1
inactive: dose: 400.0 mg/kg/injection, schedule: Q01DX005 (ip), vehicle: water 89 % of control

COc1ccc(Br)c(CCC(C)C)c1O
inactive: [1] 110 % of control | [4] 108 % of control | [2] 95 % of control | [5] 103 % of control | [3] 89 % of control | [6] 101 % of control

O=[N+]([O-])c1ccc(/C=C/c2ccc([N+](=O)[O-])cc2S(=O)(=O)O)c(S(=O)(=O)O)c1
inactive: [16] 94 % of control | [17] 96 % of control | [18] 96 % of control

Cc1ccc(C)c(CCO)c1
inactive: [7] 100 % of control | [8] 97 % of control | [9] 95 % of control | [10] 108 % of control | [11] 91 % of control

Nc1cccc(C(O)c2ccccc2)c1 (stereo not drawn)
inactive: [4] 90 % of control | [5] 92 % of control | [6] 95 % of control

CC1(C)CCC(C#N)=C1N
inactive: dose: 12.5 mg/kg/injection, schedule: Q01DX009 (ip), vehicle: saline with Tween-80 93 % of control | dose: 25.0 mg/kg/injection, schedule: Q01DX009 (ip), vehicle: saline with Tween-80 105 % of control | [15] 88 % of control

O=C(Nc1cc(Cl)ccc1Cl)c1cccc(F)c1
inactive: [1] 92 % of control | [2] 98 % of control | [3] 98 % of control

O=CNO
inactive: dose: 50.0 mg/kg/injection, schedule: Q01DX001 (ip), vehicle: water 100 % of control | dose: 100.0 mg/kg/injection, schedule: Q01DX001 (ip), vehicle: water 110 % of control | dose: 200.0 mg/kg/injection, schedule: Q01DX001 (ip), vehicle: water 96 % of control | dose: 400.0 mg/kg/injection, schedule: Q01DX001 (ip), vehicle: water 107 % of control

O=[N+]([O-])c1cccc(CS(=O)(=O)c2ccccc2)c1-c1c(CS(=O)(=O)c2ccccc2)cccc1[N+](=O)[O-]
inactive: dose: 100.0 mg/kg/injection, schedule: Q04DX003 (ip), vehicle: saline sonified 101 % of control | dose: 200.0 mg/kg/injection, schedule: Q04DX003 (ip), vehicle: saline sonified 95 % of control | dose: 400.0 mg/kg/injection, schedule: Q04DX003 (ip), vehicle: saline sonified 94 % of control

COc1ccc(/C=C/C(=O)c2ccc(OC)c(OC)c2)cc1O
inactive: dose: 100.0 mg/kg/injection, schedule: Q01DX009 (ip), vehicle: saline 96 % of control | [16] 95 % of control | dose: 200.0 mg/kg/injection, schedule: Q01DX009 (ip), vehicle: saline 120 % of control | [17] 98 % of control | dose: 400.0 mg/kg/injection, schedule: Q01DX009 (ip), vehicle: saline 91 % of control | [18] 95 % of control

CCOC(=O)C(=CNc1cccc(N)n1)C(=O)OCC
inactive: [4] 95 % of control | [5] 97 % of control | [6] 92 % of control

Cc1nc2c(=O)n(C)c(=O)n(C)c2n1C
inactive: [15] 101 % of control | [7] 98 % of control | [8] 100 % of control | [9] 100 % of control | [10] 98 % of control

COC1OC(COS(=O)(=O)c2ccc(C)cc2)C(N(C)C(C)=O)C1OS(=O)(=O)c1ccc(C)cc1 (stereo not drawn)
inactive: [12] 96 % of control | [13] 91 % of control | [14] 91 % of control

From PubChem BioAssay AID248 (DTP/NCI, 2004)
